Assay results taken from US10646595B2, “Porphyrin compounds and their use as MRI contrast agents” (THE GOVERNING COUNCIL OF THE UNIVERSITY OF TORONTO, priority 2013, dated 2020).
Like-named read-outs stand apart in the source and are kept apart here.

What was measured:
[1] = NMRD profiles, field-dependent T1 relaxivity, field cycling NMR relaxometer 0 to 1 T; type: physicochemical; conditions: for T1 relaxivity per Mn(III) or Gd(III), NMRD comparison: fields above ~0.2 T, compared among MnTPPS, MnTCP, (MnTPPS3)2 and Gd-DTPA
Protocol: T1 relaxivity values were measured per Mn(III) or Gd(III) up to 1 T.

[2] = T1 and T2 relaxivities and phantom images at 3 T on clinical MRI scanner; type: physicochemical; conditions: for r1 (T1 relaxivity): clinical MRI scanner, inversion-recovery spin-echo, 25° C. per FIG. 3
Protocol: (A) A schematic diagram of how the solutions are placed. (B) The corresponding phantom images produced by the 3 T scanner.
Relaxivities of MnPs at 3 T were measured on a clinical MRI scanner (Philips Achieva). Each of the four CAs were prepared in a series of increasing concentrations, 0, 0.05, 0.1, 0.2 and 0.5 mM, and imaged using an inversion-recovery spin-echo pulse sequence with varied inversion times TI and a multi-echo spin-echo sequence with varied echo times TE. […] The r1 values in Table 1 were derived by calculating T1 relaxation times from the inversion-recovery images and then linearly fitting the T1 relaxation rates to obtain the relaxivity r1. T2 relaxivities of the MnPs were also calculated and are listed in […]

[3] = In vivo T1-weighted MRI in rats on 3T clinical scanner after intravenous injection; conditions: 0.05 mmol Mn/kg i.v.
Description: (§1) MnPs MnTCP and (MnTPPS3)2 were administrated in rats and submitted for MRI studies on a 3T clinical scanner (Philips Achieva), with MnTPPS as a reference, and found to be efficient T1 CAs for in vivo applications, MnTCP and (MnTPPS3)2. A relatively low dose, 0.05 mmol Mn/kg (typical dose for clinical Gd-based CAs is ˜0.1 mmol Gd/kg) was chosen based on the in vitro relaxivity values described above.
(§2) The desired rapid clearance of MnTCP via renal filtration was further confirmed by urine sample analysis. The characteristic reddish color of MnPs was clearly visible by eye in the urine samples. The concentrations of MnPs can be accurately quantified by both UV-vis and Mn atomic absorption (Mn AA) spectroscopic analyses. Very high concentrations of MnP were detected in urine 60 minutes (11.7 μM) after injection. […] Moreover, a significant amount of MnTPPS (1.12 μM) could still be detected in urine 24 hours post-injection. […] The exclusion of the renal metabolic pathway for (MnTPPS3)2 was further confirmed by urine sample analysis.

[4] = Urine sample analysis by UV-vis and Mn atomic absorption after injection in rats; type: in vivo; conditions: 0.05 mmol Mn/kg i.v.
Description: as §1, §2

[5] = 37° C., cited from earlier work

concentration in urine ([4]; 60 minutes after injection) [µM]	concentration in urine ([4]; 24 hours post-injection) [µM]	time for relocation of majority of kidney enhancement into the bladder ([3]; 3 T MRI)	time to accumulation in the kidney ([3]; post injection, 3 T MRI) [min]	presence in urine sample ([4]; about 24 h post injection)	Compound	field of relaxivity peak ([1]; NMRD profile) [T]	T1 relaxivity per Mn(III) or Gd(III), NMRD comparison [1]	signal intensity on T1 weighted phantom images ([2]; 25° C., samples at the same concentration)	r1 (T1 relaxivity) [2] [mM⁻¹ s⁻¹]	enhancement in the blood vessels and in the heart ([3]; 3 T MRI)	liver enhancement ([3]; 3 T MRI)	bladder enhancement ([3]; over the three days of the experimental period)	MnP signal in urine by Mn-AA or UV-vis ([4]; over the 72 hour post-injection period)	persistence of kidney T1 enhancement signal ([3]; 3 T MRI)	relaxivity plateau ([5]; up to 1 T) [mM⁻¹ s⁻¹]	field of relaxivity peak [5] [T]	T1 relaxivity, NMRD comparison ([1]; at clinical field strengths)	relaxivity compared with Gd-DTPA [2]
					O=S(=O)([O-])c1ccc(C2=C3C=CC4=[N+]3[Mn]35[n]6c2ccc6C(c2ccc(S(=O)(=O)[O-])cc2)=C2C=CC(=[N+]23)C(c2ccc(S(=O)(=O)[O-])cc2)=c2ccc([n]25)=C4c2ccc(-c3ccc(C4=C5C=CC6=[N+]5[Mn]57[n]8c4ccc8C(c4ccc(S(=O)(=O)[O-])cc4)=C4C=CC(=[N+]45)C(c4ccc(S(=O)(=O)[O-])cc4)=c4ccc([n]47)=C6c4ccc(S(=O)(=O)[O-])cc4)cc3)cc2)cc1 (centres unmarked) [(MnTPPS3)2]	~1	highest relaxivity per Mn	highest signal intensity	14.1	relatively long-lasting enhancement	significant liver enhancement	no bladder enhancement was detected	No MnP signal was found					
4.41	1.12				MnTPPS [reference compound]				8.83		clear liver enhancement			still visible in the image 1 day post-injection	> 10	0.2		
11.7		within an hour	≤ 10	Absence	O=C(O)c1c2nc(c(C(=O)O)c3ccc([n-]3)c(C(=O)O)c3nc(c(C(=O)O)c4ccc1[n-]4)C=C3)C=C2.[Cl-].[Mn+3] [MnTCP, [5,10,15,20-tetrakis(carboxy)porphyrinato]manganese(III) Chloride]		substantially higher than Gd-DTPA		7.90								lower relaxivity than MnTPPS	significantly higher relaxivity than Gd-DTPA
